Laboratory results: US5843937A (priority 1996, dated 1998)

Experiments:
[1] = prior compounds; experimental animals (CC-1065); cited from earlier work
[2] = both in vitro and in experimental animals; cited from earlier work
double-stranded B-DNA = settings: cited from earlier work
U937 Cells = assay: Cytotoxicity of Invented Compounds Against U937 Cells; type: cell-based; settings: 3H-thymidine last 24 h
Method: Some of the new compounds were tested for their cytotoxicity against cancer cells. U937 cells were used to determine the IC50 values. The assay was set up in triplicate in 96 well flat bottom microtiter plates. All cells are seeded at 5×10^3 cells/well in RPMI-1640 plus 10% FCS. Drugs were added and the total volume was adjusted to 0.2 mL/well. Total incubation time was 48 h with the addition of ^3 H-thymidine for the last 24 h of incubation. The assay was harvested and counted with the packard Matrix 96 beta counter. The results were expressed as the percent growth inhibition calculated from the percent decrease in cpm of treated cells relative to the untreated controls.

B16 Melanoma = assay: Cytotoxicity of Invented Compounds Against B16 Melanoma; type: cell-based; settings: Mus musculus
[3] = tested on: human liver cancer HepG2 cells; assay: Cytotoxicity of Mab-YW-242 conjugates against liver cancer HepG2 cells (3H-thymidine incorporation); type: cell-based; settings: 1 h drug incubation, washed, overnight with 3H-thymidine, read-out: IC50 Values of the Mab-drug Conjugate
Method: Using such potent molecules for monoclonal antibody-drug conjugate has advantages over using low potency agents. The tumor specific antibody will carry these molecules specifically to tumor cells, thus enhancing the therapeutic efficacy of these compounds. The monoclonal antibody-drug conjugates are still very toxic to cancer cells. The Mab-YW-242 conjugates were tested in vitro against human liver cancer HepG2 cells. IC50 values for cell proliferation were determined by incorporation of ^3 H-thymidine.
The conjugates were tested in vitro against human liver cancer HepG2 cells. IC50 values for cell proliferation were determined by incorporation of ^3 H-thymidine. 4×10^4 of trypsinized cells in 0.1 mL of DMEM medium containing 10% of heat-inactivated FCS were added to each well of 96-well microtiter plates and incubated for 4 h at 37° C. to allow attachment of the cells. Drugs in 10 μL of PBS were added and incubated for 1 h at 37° C. Medium was removed and the cells were washed with PBS (0.2 mL). Fresh medium (0.1 mL) and ^3 H-thymidine (10 μL) were added. The cells were incubated overnight at 37° C. The cells were treated with trypsin-EDTA for 15 min at 37° C. and then harvested using a micromate 196 harvester. Radioactivity was counted and IC50 values were determined.

[4] = antitumor use; cited from earlier work
[5] = Homo sapiens, U-937, 48 h incubation

For `COc1c(O)c2c(c3cc(C(=O)N4CCc5c4c(O)c(OC)c4[nH]c(C(=O)N6CC7CC78C6=CC(=O)c6[nH]cc(C)c68)cc54)[nH]c13)CCN2C(N)=O` (stereo not shown) [CC-1065], the delayed death [1] is listed as “causes delayed death in experimental animals”, the “antitumor and antimicrobial activity” value [2] is listed as “potent antitumor and antimicrobial activity both in vitro and in experimental animals” and the alkylation site (double-stranded B-DNA; by its CPI left-hand unit) is listed as “alkylates the N3 position of the 3'-adenine”. The “sequence preference of DNA binding” value (double-stranded B-DNA; within the minor groove) was 5'-d(A/GNTTA)-3' and 5'-d(AAAAA)-3'.
Molecule `COc1cccc2c1C(=O)c1c(O)c3c(c(O)c1C2=O)C[C@@](O)(C(=O)CO)C[C@@H]3O[C@H]1C[C@H](N)[C@H](O)[C@H](C)O1` [Doxorubicin, reference compound] has an IC50 (U937 Cells; [5]) of 100 nM, an IC50 (B16 Melanoma) of 780 nM and an IC50 [3] of 6000 nM.
For `COC(=O)c1c(C)[nH]c2c(OC(=O)N3CCN(C)CC3)cc3c(c12)[C@H](CBr)CN3C(=O)c1cc2cc(OC)c(OC)c(OC)c2[nH]1` [KW 2189], the delayed death [1] is listed as “do not cause delayed death”.
In the case of `Cc1c[nH]c2c1[C@@]13C[C@@H]1CN(C(=O)c1cc4cc(NC(=O)c5cc6ccccc6o5)ccc4[nH]1)C3=CC2=O` [U-73975], the delayed death [1] is given as “do not cause delayed death”.
For `Cc1c[nH]c2c(O)cc3c(c12)[C@H](CCl)CN3C(=O)c1cc2cc(NC(=O)Nc3ccc4[nH]c(C(=O)N5C[C@@H](CCl)c6c5cc(O)c5[nH]cc(C)c65)cc4c3)ccc2[nH]1` [U-77779], the delayed death [1] is given as “do not cause delayed death”.
In the case of `CCN(CC)c1ccc2cc(C(=O)Nc3ccc4[nH]c(C(=O)N5C[C@@H](CCl)c6c5cc(OC(=O)Nc5ccccc5)c5[nH]cc(C)c65)cc4c3)oc2c1` [U-80244], the delayed death [1] is given as “do not cause delayed death”.
In the case of `CC(=O)Nc1cc(C(=O)N2CC(CCl)c3c2cc(O)c2ccccc32)n(C)c1` (stereo not shown) [YW-161, 3-[(4-Acetamino-1-methylpyrrole-2-yl)carbony:L]-1-(chloromethyl)-5-hydroxy-1,2-dihydro-3H-benz[e]indole], the IC50 (U937 Cells; 48 h incubation) is reported as 5 nM.
Work on `CC(=O)Nc1ccc2[nH]c(C(=O)N3CC(CCl)c4c3cc(O)c3ccccc43)cc2c1` (stereo not shown) [YW-198, 3-[[5-(acetamino)-1H-indol-2'-yl]carbonyl]-1-(chloromethyl)-5-hydroxy-1,2-dihydro-3H-benz[e]indole] yielded an IC50 (U937 Cells; [5]) of 0.2 nM.
With `CC(=O)Nc1ccc2[nH]c(C(=O)Nc3ccc4[nH]c(C(=O)N5CC(CCl)c6c5cc(O)c5ccccc65)cc4c3)cc2c1` (stereo not shown) [YW-200, 3-[[5-[[5-(Acetamino)-1H-indol-2-ylcarbonyl]amino]-1H-indol-2-yl]carbonyl]-1-(chloromethyl)-5-hydroxy-1,2-dihydro-3H-benz[e]indole] the IC50 (B16 Melanoma) was 7.2 nM.
`CC(=O)Nc1ccc2oc(C(=O)Nc3ccc4[nH]c(C(=O)N5CC(CCl)c6c5cc(O)c5ccccc65)cc4c3)cc2c1` (stereo not shown) [YW-201, 3-[[5-[[5-(Acetamino)-1H-benzofuran-2-ylcarbonyl]amino]-1H-indol-2-yl]carbonyl]-1-(chloromethyl)-5-hydroxy-1,2-dihydro-3H-benz[e]indole] showed an IC50 (U937 Cells; [5]) of 0.07 nM.
Molecule `CC(=O)Nc1ccc2[nH]c(C=CC(=O)N3CC(CCl)c4c3cc(O)c3ccccc43)cc2c1` (stereo not shown) [YW-202, 3-[[5-(acetamino)-1H-indol-2-yl]acrylyl]-1-(chloromethyl)-5-hydroxy-1,2-dihydro-3H-benz[e]indole] has an IC50 (U937 Cells; [5]) of 0.2 nM.
`CC(=O)Nc1ccc2oc(C(=O)Nc3ccc4[nH]c(C(=O)N5CC6CC67C5=CC(=O)c5ccccc57)cc4c3)cc2c1` (stereo not shown) [YW-213, N^2-[[5-[[[5-(Acetamino)-1H-benzofuran-2-yl]carbonyl]amino]-1H-indol-2-yl]carbonyl]1,2,9,9a-tetrahydrocyclopropa[c]-benz[e]indol-4-one] showed an IC50 (U937 Cells; [5]) of 0.2 nM.
`O=C(C=Cc1cc2ccccc2o1)Nc1ccc2[nH]c(C(=O)N3CC(CCl)c4c3cc(O)c3ccccc43)cc2c1` (stereo not shown) [YW-215, 3-[[5-[(1H-Benzofuran-2-ylacrylyl)amino]-1H-indol-2-yl]carbony 1]-1-(chloromethyl)-5-hydroxy-1,2-dihydro-3H-benz[e]indole] showed an IC50 (U937 Cells; 48 h incubation) of 0.09 nM.
In the case of `CCCC(=O)Nc1cc(C=CC(=O)N2CC(CCl)c3c2cc(O)c2ccccc32)n(C)c1` (stereo not shown) [YW-222, 3-(4-Butyramido-1-methyl-2-pyrroleacryloylcarbonyl)-1-(chloromethyl)-5-hydroxy-1,2-dihydro-3H-benz[e]indole], the IC50 (U937 Cells; [5]) is reported as 0.5 nM.
For `O=C(CCCO)Nc1ccc2[nH]c(C(=O)N3CC(CCl)c4c3cc(O)c3ccccc43)cc2c1` (stereo not shown) [YW-231, 3-[[5-[(4-Hydroxy)butyramino]-1H-indol-2'-yl]carbonyl]-1-(chloromethyl)-5-hydroxy-1,2-dihydro-3H-benz[e]indole], the IC50 (U937 Cells; [5]) was 0.6 nM and the IC50 (B16 Melanoma) was 4 nM.
`O=C(CCCC[C@@H]1SC[C@@H]2NC(=O)N[C@@H]21)Nc1ccc2[nH]c(C(=O)N3CC(CCl)c4c3cc(O)c3ccccc43)cc2c1` (stereo partly shown) [YW-235, 3-[[5-(Biotin-amino)-1H-indol-2'-yl]carbonyl]-1-(chloromethyl)-5-hydroxy-1,2-dihydro-3H-benz[e]indole] showed an IC50 (U937 Cells; [5]) of 0.7 nM.
`Nc1ccc2[nH]c(C(=O)N3CC(CCl)c4c3cc(O)c3ccccc43)cc2c1` (stereo not shown) [YW-242, 3-[(5-Amino-1H-indol-2'-yl)carbonyl]-1-(chloromethyl)-5-hydroxy-1,2-dihydro-3H-benz[e]indole] gave an IC50 (U937 Cells; [5]) of 0.09 nM, an IC50 (B16 Melanoma) of 11 nM and an IC50 [3] of 200 nM.
Work on `COC(=O)[C@H]1O[C@@H](OCCCC(=O)Nc2ccc3[nH]c(C(=O)N4CC(CCl)c5c4cc(O)c4ccccc54)cc3c2)[C@H](OC(C)=O)[C@@H](OC(C)=O)[C@@H]1OC(C)=O` (stereo partly drawn) [YW-247, 3-[[5-[4-(Methyl 2,3,4-tri-O-acetyl-1-deoxy-b-D-glucuronate)butyramino]-1H-indol-2'-yl]carbonyl]-1-(chloromethyl)-5-hydroxy-1,2-dihydro-3H-benz[e]indole] yielded an IC50 (U937 Cells; [5]) of 1.4 nM.
`COC(=O)[C@H]1O[C@@H](OCCCC(=O)Nc2ccc3[nH]c(C(=O)Nc4ccc5[nH]c(C(=O)N6CC(CCl)c7c6cc(O)c6ccccc76)cc5c4)cc3c2)[C@H](OC(C)=O)[C@@H](OC(C)=O)[C@@H]1OC(C)=O` (stereo partly drawn) [YW-249, 3-[[5-[[5-[4-(Methyl 2,3,4-tri-O-acetyl-1-deoxy-b-D-glucuronate)butyramino]-1H-indol-2-ylcarbonyl]amino]-1H-indol-2-yl]carbony 1]-1-(chloromethyl)-5-hydroxy-1,2-dihydro-3H-benz[e]indole] gave an IC50 (U937 Cells; [5]) of 0.55 nM.
Work on `O=C(CCCO)Nc1ccc2[nH]c(C(=O)Nc3ccc4[nH]c(C(=O)N5CC(CCl)c6c5cc(O)c5ccccc65)cc4c3)cc2c1` (stereo not shown) [YW-254, 3-[[5-[[5-[4-(Hydroxy)butyramino]-1H-indol-2-ylcarbonyl]amino]-1H-indol-2-yl]carbonyl]-1-(chloromethyl)-5-hydroxy-1,2-dihydro-3H-benz[e]indole] yielded an IC50 (U937 Cells; [5]) of 0.1 nM.
Work on `COC(=O)[C@H]1O[C@@H](OCCCC(=O)Nc2ccc3[nH]c(C(=O)Nc4ccc5[nH]c(C(=O)Nc6ccc7[nH]c(C(=O)N8CC(CCl)c9c8cc(O)c8ccccc98)cc7c6)cc5c4)cc3c2)[C@H](OC(C)=O)[C@@H](OC(C)=O)[C@@H]1OC(C)=O` (stereo partly drawn) [YW-258, 3-[[5-[[5-[[5-[4-(Methyl 2,3,4-tri-O-acetyl-1-deoxy-b-D-glucuronate)butyramino]-1H-indo 1-2-ylcarbonyl]amino]-1H-indol-2-ylcarbonyl]amino]-1H-indol-2-yl]carbonyl]-1-(chloromethyl)-5-hydroxy-1,2-dihydro-3H-benz[e] indole] yielded an IC50 (U937 Cells; [5]) of 0.08 nM.
In the case of `O=C(CCCO)Nc1ccc2[nH]c(C(=O)Nc3ccc4[nH]c(C(=O)Nc5ccc6[nH]c(C(=O)N7CC(CCl)c8c7cc(O)c7ccccc87)cc6c5)cc4c3)cc2c1` (stereo not shown) [YW-259], the IC50 (U937 Cells; [5]) is reported as 0.09 nM.
`Cn1cc(N)cc1C(=O)N1CC(CCl)c2c1cc(O)c1ccccc21` (stereo not shown) [YW-284, 3-[(4-Amino-1-methylpyrrole-2-yl)carbonyl]-1-(chloromethyl)-5-hydroxy-1,2-dihydro-3H-benz[e]indole] gave an IC50 (U937 Cells; [5]) of 9 nM.
In the case of `O=C(Cc1cccs1)N[C@@H]1C(=O)N2C(C(=O)O)=C(COC(=O)Nc3ccc4[nH]c(C(=O)N5CC(CCl)c6c5cc(O)c5ccccc65)cc4c3)C[S+]([O-])[C@H]12` (stereo partly shown) [YW-285], the IC50 (U937 Cells; [5]) is reported as 0.9 nM.
For `Cn1cc(NC(=O)c2cc(NC(=O)c3cc(NC=O)cn3C)cn2C)cc1C(=O)NCCC(=N)N` [distamycin], the therapeutic efficacy [4] is listed as “low therapeutic efficacy”.
For `Cn1cc(NC(=O)c2cc(NC(=O)CN=C(N)N)cn2C)cc1C(=O)NCCC(=N)N` [netropsin], the therapeutic efficacy [4] is listed as “low therapeutic efficacy”.
